Organism: Rattus norvegicus
Experiment: DrugMatrix - Regimen: Daily Repeat
Format: toxicity, organism-based, Sprague-Dawley
Parameters: regimen Daily Repeat, gender Male, age 6-8 weeks
Details: in vivo, po, route oral GAVAGE, […]; for ABSOLUTE BASOPHIL / ABSOLUTE EOSINOPHIL / ABSOLUTE LYMPHOCYTE / ABSOLUTE MONOCYTE / ABSOLUTE SEGMENTED NEUTROPHIL / BASOPHIL / EOSINOPHIL / ERYTHROCYTE COUNT / HEMATOCRIT / HEMOGLOBIN / LEUKOCYTE COUNT / LYMPHOCYTE / MEAN CORPUSCULAR HEMOGLOBIN / MEAN CORPUSCULAR HEMOGLOBIN CONCENTRATION / MEAN CORPUSCULAR VOLUME / MONOCYTE / NEUTROPHIL / NUCLEATED RED BLOOD CELLS / PLATELET COUNT: tissue Blood; for ALANINE AMINOTRANSFERASE / ALBUMIN / ALKALINE PHOSPHATASE / ASPARTATE AMINOTRANSFERASE / BLOOD UREA NITROGEN / CARBON DIOXIDE / CHLORIDE / CHOLESTEROL / CREATINE PHOSPHOKINASE / CREATININE / GLUCOSE / LACTATE DEHYDROGENASE / LIPASE / PHOSPHORUS / POTASSIUM / SODIUM / TOTAL BILIRUBIN / TOTAL PROTEIN / URIC ACID: tissue Plasma
[1] = 3 mg/kg, 120 h, dose level Low, time 5 day
[2] = 775 mg/kg, 72 h, dose level High, time 3 day
[3] = 775 mg/kg, 120 h, dose level High, time 5 day

SMILES: CS(=O)(=O)c1ccc(C2=C(c3ccccc3)C(=O)OC2)cc1 [ROFECOXIB]
- ABSOLUTE BASOPHIL [1]: 0 CELLS/uL
- ABSOLUTE EOSINOPHIL [1]: 0 CELLS/uL
- ABSOLUTE LYMPHOCYTE [1]: 7546 CELLS/uL
- ABSOLUTE MONOCYTE [1]: 71.67 CELLS/uL
- ABSOLUTE SEGMENTED NEUTROPHIL [1]: 782.33 CELLS/uL
- BASOPHIL [1]: 0%
- EOSINOPHIL [1]: 0%
- ERYTHROCYTE COUNT [1]: 5.17 x10E6/uL
- HEMATOCRIT [1]: 33.27%
- HEMOGLOBIN [1]: 13.07 G/DL
- LEUKOCYTE COUNT [1]: 8.4 x10E3/uL
- LYMPHOCYTE [1]: 90.67%
- MEAN CORPUSCULAR HEMOGLOBIN [1]: 25.27 pg
- MEAN CORPUSCULAR HEMOGLOBIN CONCENTRATION [1]: 39.27 G/DL
- MEAN CORPUSCULAR VOLUME [1]: 64.33 fL
- MONOCYTE [1]: 1%
- NEUTROPHIL [1]: 8.33%
- NUCLEATED RED BLOOD CELLS [1]: 0 /100WBC
- PLATELET COUNT [1]: 1212.67 x10E3/uL
- ALANINE AMINOTRANSFERASE [1]: 57.33 u/L
- ALBUMIN [1]: 4.17 G/DL
- ALKALINE PHOSPHATASE [1]: 300.67 u/L
- ASPARTATE AMINOTRANSFERASE [1]: 85.67 u/L
- BLOOD UREA NITROGEN [1]: 12.33 mg/dL
- CARBON DIOXIDE [1]: 27.67 mmol/L
- CHLORIDE [1]: 100.67 MEQ/L
- CHOLESTEROL [1]: 62 mg/dL
- CREATINE PHOSPHOKINASE [1]: 325.33 u/L
- CREATININE [1]: 0.22 mg/dL
- GLUCOSE [1]: 165 mg/dL
- LACTATE DEHYDROGENASE [1]: 77 u/L
- LIPASE [1]: 11.33 u/L
- PHOSPHORUS [1]: 9.4 mg/dL
- POTASSIUM [1]: 6.14 MEQ/L
- SODIUM [1]: 145.9 MEQ/L
- TOTAL BILIRUBIN [1]: 0.13 mg/dL
- TOTAL PROTEIN [1]: 6.1 G/DL
- URIC ACID [1]: 0.73 mg/dL
- ABSOLUTE BASOPHIL [2]: 0 CELLS/uL
- ABSOLUTE EOSINOPHIL [2]: 0 CELLS/uL
- ABSOLUTE LYMPHOCYTE [2]: 11625.33 CELLS/uL
- ABSOLUTE MONOCYTE [2]: 298.67 CELLS/uL
- ABSOLUTE SEGMENTED NEUTROPHIL [2]: 1009.33 CELLS/uL
- BASOPHIL [2]: 0%
- EOSINOPHIL [2]: 0%
- ERYTHROCYTE COUNT [2]: 5.13 x10E6/uL
- HEMATOCRIT [2]: 32.27%
- HEMOGLOBIN [2]: 12.53 G/DL
- LEUKOCYTE COUNT [2]: 12.93 x10E3/uL
- LYMPHOCYTE [2]: 90%
- MEAN CORPUSCULAR HEMOGLOBIN [2]: 24.43 pg
- MEAN CORPUSCULAR HEMOGLOBIN CONCENTRATION [2]: 38.83 G/DL
- MEAN CORPUSCULAR VOLUME [2]: 62.93 fL
- MONOCYTE [2]: 2.33%
- NEUTROPHIL [2]: 7.67%
- NUCLEATED RED BLOOD CELLS [2]: 0.33 /100WBC
- PLATELET COUNT [2]: 877.67 x10E3/uL
- ALANINE AMINOTRANSFERASE [2]: 55.33 u/L
- ALBUMIN [2]: 3.53 G/DL
- ALKALINE PHOSPHATASE [2]: 313.67 u/L
- ASPARTATE AMINOTRANSFERASE [2]: 81.33 u/L
- BLOOD UREA NITROGEN [2]: 14.33 mg/dL
- CARBON DIOXIDE [2]: 26.67 mmol/L
- CHLORIDE [2]: 99.33 MEQ/L
- CHOLESTEROL [2]: 77.67 mg/dL
- CREATINE PHOSPHOKINASE [2]: 192.67 u/L
- CREATININE [2]: 0.21 mg/dL
- GLUCOSE [2]: 185.67 mg/dL
- LACTATE DEHYDROGENASE [2]: 91.33 u/L
- LIPASE [2]: 22.33 u/L
- PHOSPHORUS [2]: 10.4 mg/dL
- POTASSIUM [2]: 5.68 MEQ/L
- SODIUM [2]: 144.1 MEQ/L
- TOTAL BILIRUBIN [2]: 0.1 mg/dL
- TOTAL PROTEIN [2]: 5.6 G/DL
- URIC ACID [2]: 0.87 mg/dL
- ABSOLUTE BASOPHIL [3]: 0 CELLS/uL
- ABSOLUTE EOSINOPHIL [3]: 72.67 CELLS/uL
- ABSOLUTE LYMPHOCYTE [3]: 8378 CELLS/uL
- ABSOLUTE MONOCYTE [3]: 35.33 CELLS/uL
- ABSOLUTE SEGMENTED NEUTROPHIL [3]: 1314 CELLS/uL
- BASOPHIL [3]: 0%
- EOSINOPHIL [3]: 0.67%
- ERYTHROCYTE COUNT [3]: 4.79 x10E6/uL
- HEMATOCRIT [3]: 30.33%
- HEMOGLOBIN [3]: 11.77 G/DL
- LEUKOCYTE COUNT [3]: 9.8 x10E3/uL
- LYMPHOCYTE [3]: 84%
- MEAN CORPUSCULAR HEMOGLOBIN [3]: 24.53 pg
- MEAN CORPUSCULAR HEMOGLOBIN CONCENTRATION [3]: 38.8 G/DL
- MEAN CORPUSCULAR VOLUME [3]: 63.33 fL
- MONOCYTE [3]: 0.67%
- NEUTROPHIL [3]: 14.67%
- NUCLEATED RED BLOOD CELLS [3]: 0 /100WBC
- PLATELET COUNT [3]: 1142 x10E3/uL
- ALANINE AMINOTRANSFERASE [3]: 51 u/L
- ALBUMIN [3]: 3.33 G/DL
- ALKALINE PHOSPHATASE [3]: 298.67 u/L
- ASPARTATE AMINOTRANSFERASE [3]: 77.33 u/L
- BLOOD UREA NITROGEN [3]: 12.67 mg/dL
- CARBON DIOXIDE [3]: 28 mmol/L
- CHLORIDE [3]: 99.67 MEQ/L
- CHOLESTEROL [3]: 80 mg/dL
- CREATINE PHOSPHOKINASE [3]: 192.67 u/L
- CREATININE [3]: 0.34 mg/dL
- GLUCOSE [3]: 160.67 mg/dL
- LACTATE DEHYDROGENASE [3]: 72 u/L
- LIPASE [3]: 12.67 u/L
- PHOSPHORUS [3]: 9.2 mg/dL
- POTASSIUM [3]: 5.83 MEQ/L
- SODIUM [3]: 144.83 MEQ/L
- TOTAL BILIRUBIN [3]: 0.1 mg/dL
- TOTAL PROTEIN [3]: 5.6 G/DL
- URIC ACID [3]: 0.7 mg/dL

From ChEMBL document CHEMBL3885881, “DrugMatrix”
